Measured values taken from the supplement of paper PMC10307832.

Experiments:
Assay in all cases: relative viability (nuclei count vs DMSO), 5 days (fraction); higher = more cells survive
[1] = compound: C1=CC2=NC=CN=C2C=C1/C=C/3\C(=O)NC(=O)S3 + Nc1nc2[nH]cc(CCc3ccc(C(=O)N[C@@H](CCC(=O)O)C(=O)O)cc3)c2c(=O)[nH]1 [Pemetrexed] (partner 0.2 µM)
Outline: (§1)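 Lung cancer cell lines in 1536-well plates were dosed by pin tool the day after seeding, either with one drug alone or with a fixed anchor-drug dose plus five library-drug doses (not always all listed) in √10 steps. After 5 days, cells were fixed and their nuclei stained in one step (final 0.05% Triton X-100, 1% formaldehyde, 1 ug/ml Hoechst), then counted on 4× images. Relative viability is the nuclei count in treated wells divided by that in vehicle wells. Values are medians of duplicate plates.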

[2] = compound: CCN1CCN(c2ccc(Nc3cc(N(C)C(=O)Nc4c(Cl)c(OC)cc(OC)c4Cl)ncn3)cc2)CC1 [BGJ398] + CC(=O)Nc1cccc(-n2c(=O)n(C3CC3)c(=O)c3c(Nc4ccc(I)cc4F)n(C)c(=O)c(C)c32)c1 [Trametinib] (partner 0.02 µM)
Outline: as §1

[3] = compound: CCN1CCN(c2ccc(Nc3cc(N(C)C(=O)Nc4c(Cl)c(OC)cc(OC)c4Cl)ncn3)cc2)CC1 [BGJ398] + Nc1nc2[nH]cc(CCc3ccc(C(=O)N[C@@H](CCC(=O)O)C(=O)O)cc3)c2c(=O)[nH]1 [Pemetrexed] (partner 0.2 µM)
Outline: as §1

[4] = compound: CCN1CCN(c2ccc(Nc3cc(N(C)C(=O)Nc4c(Cl)c(OC)cc(OC)c4Cl)ncn3)cc2)CC1 [BGJ398] + COc1cc2c(Oc3ccc(NC(=O)C4(C(=O)Nc5ccc(F)cc5)CC4)cc3F)ccnc2cc1OCCCN1CCOCC1 [Foretinib] (partner 0.25 µM)
Outline: as §1

Cell Line	relative viability ([1]; first compound 0.02 µM)	relative viability ([1]; first compound 0.06325 µM)	relative viability ([1]; first compound 0.2 µM)	relative viability ([1]; first compound 0.6325 µM)	relative viability ([1]; first compound 2 µM)	relative viability ([2]; first compound 0.01 µM)	relative viability ([2]; first compound 0.03162 µM)	relative viability ([2]; first compound 0.1 µM)	relative viability ([2]; first compound 0.3162 µM)	relative viability ([2]; first compound 1 µM)	relative viability ([3]; first compound 0.01 µM)	relative viability ([3]; first compound 0.03162 µM)	relative viability ([3]; first compound 0.1 µM)	relative viability ([3]; first compound 0.3162 µM)	relative viability ([3]; first compound 1 µM)	relative viability ([4]; first compound 0.01 µM)	relative viability ([4]; first compound 0.03162 µM)	relative viability ([4]; first compound 0.1 µM)	relative viability ([4]; first compound 0.3162 µM)	relative viability ([4]; first compound 1 µM)
NCI-H522	1	0.871	1.12	0.925	0.747	0.743	0.797	0.709	0.644	0.736	0.987	0.896	0.876	0.995	0.856	–	–	–	–	–
HCC-15	0.231	0.217	0.234	0.231	0.218	0.331	0.401	0.378	0.433	0.393	0.262	0.232	0.219	0.223	0.221	0.978	1.1	1.04	1.13	1.07
A-427	0.963	1.03	0.959	0.96	0.903	0.624	0.595	0.585	0.427	0.438	1.03	1.08	0.958	0.924	0.918	1.09	0.919	0.954	0.715	0.623
NCI-H2228	0.358	0.34	0.332	0.293	0.321	0.42	0.694	0.503	0.348	0.419	0.312	0.367	0.377	0.342	0.299	0.776	0.893	0.848	0.822	0.826
NCI-H1734	0.384	–	0.427	0.436	0.362	0.591	0.657	0.54	0.42	0.381	0.405	0.403	0.405	0.378	0.415	0.862	0.879	0.893	0.785	0.827
PC-14	0.138	0.148	0.156	0.131	0.145	0.762	0.821	0.735	–	0.903	0.13	0.132	0.131	–	0.151	0.905	0.618	1.02	0.802	1.03
NCI-H1915	0.463	0.456	0.489	0.478	0.483	0.282	0.31	0.29	0.221	0.17	0.511	0.524	0.571	0.458	0.521	1.05	1.06	1.14	1.1	1.09
NCI-H1666	0.898	0.548	0.838	0.96	0.759	0.735	0.908	0.965	0.911	0.75	0.919	0.935	0.8	0.929	0.737	1.03	1.01	0.963	0.945	1.01
HCC-366	0.117	–	0.163	0.164	0.21	0.309	0.375	0.387	0.311	0.325	0.161	0.168	0.163	0.172	0.132	0.924	0.883	0.944	0.89	1.08
SK-MES-1	0.99	1.01	0.953	0.884	0.837	0.525	0.591	0.534	0.574	0.63	0.84	0.999	0.888	1.02	0.898	0.869	1.08	0.971	0.809	1.12
SW 1573	0.883	1.1	0.802	0.862	0.711	0.477	0.587	0.455	0.448	0.47	0.817	0.833	0.83	0.748	0.944	0.91	1.13	0.866	0.594	0.973
NCI-H661	0.94	1	0.982	0.845	0.905	0.479	0.599	0.642	0.516	0.63	0.912	0.877	0.961	0.977	0.912	0.889	1.06	1.14	0.932	0.982
PC-3 [JPC-3]	1.19	1.17	1.2	1.19	1.23	0.75	–	0.787	–	0.782	1.16	–	0.766	–	0.992	1.15	–	1.06	1	1.02
NCI-H1623	–	–	–	–	–	–	–	–	–	–	–	–	–	–	–	0.907	0.723	0.937	0.84	0.713
Calu-6	–	–	–	–	–	–	–	–	–	–	–	–	–	–	–	0.879	0.819	0.912	0.836	0.88
LC-2-ad	0.292	0.286	0.276	0.283	0.279	0.912	0.935	0.892	0.873	0.985	0.292	0.285	0.245	0.271	0.31	1.05	0.839	1.02	0.963	0.99
CAL-12T	1.03	1.31	1.34	1.09	1.28	0.302	0.428	0.315	0.404	0.308	1.17	1.21	1.1	1.34	1.01	1.04	1.13	1.04	1.11	1.12
RERF-LC-KJ	0.525	0.501	0.465	0.489	0.455	0.854	0.864	0.962	0.87	0.953	0.436	0.431	0.37	0.49	0.408	0.912	0.899	0.961	0.911	0.851
NCI-H1650	0.376	0.381	0.319	0.357	0.394	0.503	0.568	0.471	0.304	0.25	0.391	0.361	0.354	0.295	0.319	1.31	–	1.17	0.857	1.08
BEN	0.824	0.813	0.773	0.836	0.644	0.84	1.02	1.03	0.899	0.952	0.703	0.812	0.751	0.749	0.606	0.722	0.866	0.568	0.395	0.453

Cell Line	relative viability ([1]; first compound 0.02 µM)	relative viability ([1]; first compound 0.06325 µM)	relative viability ([1]; first compound 0.2 µM)	relative viability ([1]; first compound 0.6325 µM)	relative viability ([1]; first compound 2 µM)	relative viability ([2]; first compound 0.01 µM)	relative viability ([2]; first compound 0.03162 µM)	relative viability ([2]; first compound 0.1 µM)	relative viability ([2]; first compound 0.3162 µM)	relative viability ([2]; first compound 1 µM)	relative viability ([3]; first compound 0.01 µM)	relative viability ([3]; first compound 0.03162 µM)	relative viability ([3]; first compound 0.1 µM)	relative viability ([3]; first compound 0.3162 µM)	relative viability ([3]; first compound 1 µM)	relative viability ([4]; first compound 0.01 µM)	relative viability ([4]; first compound 0.03162 µM)	relative viability ([4]; first compound 0.1 µM)	relative viability ([4]; first compound 0.3162 µM)	relative viability ([4]; first compound 1 µM)
EMC-BAC-2	0.402	0.424	0.44	0.434	0.417	0.919	0.912	0.929	0.78	0.854	0.432	0.483	0.477	0.477	0.471	1.12	1.02	0.98	1.05	0.992
LU99A	0.167	0.131	0.165	0.176	0.166	0.461	0.487	0.498	0.401	0.401	0.176	0.182	0.169	0.224	0.204	0.761	0.804	0.855	0.897	0.756
ABC-1	–	–	–	–	–	–	–	–	–	–	–	–	–	–	–	0.962	1.19	1.05	1.26	0.973
NCI-H2170	0.29	0.268	0.287	0.278	0.263	0.941	0.937	1.02	0.91	0.866	0.273	0.254	0.283	0.276	0.247	1.02	1.04	1.06	0.977	1.04
NCI-H1299	–	–	–	–	–	–	–	–	–	–	–	–	–	–	–	1.09	1.06	1.09	1.15	1.03
EBC-1	–	–	–	–	–	–	–	–	–	–	–	–	–	–	–	0.0959	0.0812	0.0909	0.109	0.108
NCI-H2347	0.417	0.447	0.427	0.444	0.408	0.32	0.239	0.275	0.309	0.259	0.4	0.462	0.427	0.43	0.375	1.02	1.12	0.838	0.717	0.741
NCI-H1993	0.528	0.665	0.607	0.54	0.449	0.447	0.524	0.596	0.441	0.595	0.559	0.543	0.575	0.572	0.549	0.833	0.67	0.883	0.842	0.735
NCI-H322M	0.622	0.631	0.646	0.618	0.506	0.587	0.465	0.511	0.435	0.507	0.662	0.635	0.637	0.603	0.631	1.03	0.896	1.07	0.966	0.958
NCI-H838	0.247	0.272	0.25	0.238	0.197	0.41	0.537	0.51	0.403	0.382	0.227	0.243	0.217	0.237	0.23	0.927	1.08	0.962	0.889	0.914
HARA	0.226	0.233	0.256	0.231	0.249	0.778	0.41	0.43	0.604	0.437	0.237	0.22	0.215	0.273	0.248	0.941	0.901	0.829	0.905	0.79
NCI-H1792	0.755	–	0.756	0.831	0.47	0.359	0.361	0.342	0.215	0.17	0.723	0.791	0.831	0.743	0.749	–	–	–	–	–
HCC-44	0.578	0.688	0.667	0.675	0.655	1.01	1.03	1.03	1.04	0.949	0.6	0.67	0.656	0.649	0.654	–	–	–	–	–
A549	–	–	–	–	–	–	–	–	–	–	–	–	–	–	–	0.919	0.939	0.97	0.944	1.09
NCI-H1563	0.753	0.684	0.916	0.781	0.749	–	–	–	–	–	0.749	0.968	0.754	0.58	0.433	0.924	0.931	0.946	0.814	0.752
IA-LM	–	–	–	–	–	–	–	–	–	–	–	–	–	–	–	1.2	1.08	1.42	1.15	1.14
NCI-H1703	–	–	–	–	–	–	–	–	–	–	–	–	–	–	–	0.37	0.329	0.342	0.278	0.331
NCI-H727	–	–	–	–	–	0.417	0.412	0.381	0.389	0.385	–	–	–	–	–	1.12	0.773	0.822	0.848	0.927
NCI-H1648	0.648	0.576	0.649	–	0.777	0.411	–	0.474	0.393	0.417	0.85	–	0.821	0.896	0.651	–	–	–	–	–
